Among the data in US6750214B2, “Quinoline and quinazoline compounds useful in therapy” (priority 1995, dated 2004) are pA2 value values, retold here.

The subject of the assay is human prostate. Put plainly: Contractile responses of human prostate. The following applies: antagonist affinity estimate against (−)-noradrenaline contractions of human prostatic tissue strips; single antagonist concentration, incubated 2 hours. As to the method: Contractile Responses of Human Prostate
Prostatic tissue was cut into longitudinal strips (approximately 3×2×10 mm) and suspended in organ baths under a resting tension of 1 g in Krebs Ringer bicarbonate of the following composition (mM): NaCl (119), KCl (4.7), CaCl2 (2.5), KH2PO4 (1.2), MgSO4 (1.2), NaHCO3 (25), glucose (11), and gassed with 95% O2/5% CO2. The solution also contained 10 mM cocaine and 10 mM corticosterone. Tissues were exposed to a sensitising dose of (−)-noradrenaline ([…]) and washed over a 45 minute period. Isometric contractions were obtained in response to cumulative additions of (−)-noradrenaline to obtain control curves in all tissues. A further curve was then generated in the presence or absence of antagonist (incubated for 2 hours). Antagonist affinity estimates (pA2) were determined using a single concentration of competing antagonist, pA2=−log [A]/(DR-1) where the dose ratio (DR), relative to corresponding controls, was produced by a single concentration of antagonist [A], assuming competitive antagonism and Schild regression close to unity.

Regarding `COc1cc2nc(N3CCCN(C(=O)N4C[C@H](O)[C@@H](O)C4)CC3)nc(N)c2c(-c2ccccc2)c1OC.Cl` [Example 17, 4-Amino-6,7-dimethoxy-2-{4-[1-(3S,4S-dihydroxypyrrolidine)carbonyl]-1,4-diazepan-1-yl}-5-phenylquinazoline hydrochloride], the pA2 value was 8.5.
